Reference: patent publication US10793563B2, “GCN2 inhibitors and uses thereof” (Merck Patent GmbH, priority 2018, dated 2020)

Legend:
[1] = biological target: GCN2 kinase (Homo sapiens (Human), UniProt Q9P2K8); experiment: GCN2 Enzyme Inhibition Assay (Transcreener ADP2 fluorescence polarization); type: biochemical; conditions: 280 μM ATP, 200 μM (RS)7 peptide, 4 nM GCN2, 25° C.; for Ki: Ki(app)
In short: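 At 25 °C, GCN2 kinase (typical final concentration 4 nM) and (RS)7 peptide in Tris-HCl pH 7.5 buffer with MgCl2, NaCl and DTT were preincubated with compound for 10 min, then ATP was added for a 1 h reaction. ADP was read by FP with antibody/Alexa633 tracer. Non-linear tight-binding analysis gave IC50 and apparent Ki.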

[2] = biological target: intracellular GCN2 (phosphorylation of the GCN2 substrate eIF2α) (Homo sapiens (Human), UniProt Q9P2K8); experiment: GCN2 Cellular Inhibition Assay (AlphaScreen SureFire P-eIF2α Ser51, borrelidin-treated U2OS cells); type: cell-based; conditions: 10 μM borrelidin, 1 h, phosphorylated eIF2α Ser51, read-out: GCN2 Biomarker (IC50)
In short: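 Phospho-eIF2α (Ser51) measured by AlphaScreen SureFire in lysates of U2OS cells stimulated 1 h at 37 °C with 10 μM borrelidin alongside compound, 4-fold dilutions from 40 μM. Inhibition expressed as percent relative to borrelidin-alone controls.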

intracellular GCN2 (phosphorylation of the GCN2 substrate eIF2α), sequence (Q9P2K8 whole entry): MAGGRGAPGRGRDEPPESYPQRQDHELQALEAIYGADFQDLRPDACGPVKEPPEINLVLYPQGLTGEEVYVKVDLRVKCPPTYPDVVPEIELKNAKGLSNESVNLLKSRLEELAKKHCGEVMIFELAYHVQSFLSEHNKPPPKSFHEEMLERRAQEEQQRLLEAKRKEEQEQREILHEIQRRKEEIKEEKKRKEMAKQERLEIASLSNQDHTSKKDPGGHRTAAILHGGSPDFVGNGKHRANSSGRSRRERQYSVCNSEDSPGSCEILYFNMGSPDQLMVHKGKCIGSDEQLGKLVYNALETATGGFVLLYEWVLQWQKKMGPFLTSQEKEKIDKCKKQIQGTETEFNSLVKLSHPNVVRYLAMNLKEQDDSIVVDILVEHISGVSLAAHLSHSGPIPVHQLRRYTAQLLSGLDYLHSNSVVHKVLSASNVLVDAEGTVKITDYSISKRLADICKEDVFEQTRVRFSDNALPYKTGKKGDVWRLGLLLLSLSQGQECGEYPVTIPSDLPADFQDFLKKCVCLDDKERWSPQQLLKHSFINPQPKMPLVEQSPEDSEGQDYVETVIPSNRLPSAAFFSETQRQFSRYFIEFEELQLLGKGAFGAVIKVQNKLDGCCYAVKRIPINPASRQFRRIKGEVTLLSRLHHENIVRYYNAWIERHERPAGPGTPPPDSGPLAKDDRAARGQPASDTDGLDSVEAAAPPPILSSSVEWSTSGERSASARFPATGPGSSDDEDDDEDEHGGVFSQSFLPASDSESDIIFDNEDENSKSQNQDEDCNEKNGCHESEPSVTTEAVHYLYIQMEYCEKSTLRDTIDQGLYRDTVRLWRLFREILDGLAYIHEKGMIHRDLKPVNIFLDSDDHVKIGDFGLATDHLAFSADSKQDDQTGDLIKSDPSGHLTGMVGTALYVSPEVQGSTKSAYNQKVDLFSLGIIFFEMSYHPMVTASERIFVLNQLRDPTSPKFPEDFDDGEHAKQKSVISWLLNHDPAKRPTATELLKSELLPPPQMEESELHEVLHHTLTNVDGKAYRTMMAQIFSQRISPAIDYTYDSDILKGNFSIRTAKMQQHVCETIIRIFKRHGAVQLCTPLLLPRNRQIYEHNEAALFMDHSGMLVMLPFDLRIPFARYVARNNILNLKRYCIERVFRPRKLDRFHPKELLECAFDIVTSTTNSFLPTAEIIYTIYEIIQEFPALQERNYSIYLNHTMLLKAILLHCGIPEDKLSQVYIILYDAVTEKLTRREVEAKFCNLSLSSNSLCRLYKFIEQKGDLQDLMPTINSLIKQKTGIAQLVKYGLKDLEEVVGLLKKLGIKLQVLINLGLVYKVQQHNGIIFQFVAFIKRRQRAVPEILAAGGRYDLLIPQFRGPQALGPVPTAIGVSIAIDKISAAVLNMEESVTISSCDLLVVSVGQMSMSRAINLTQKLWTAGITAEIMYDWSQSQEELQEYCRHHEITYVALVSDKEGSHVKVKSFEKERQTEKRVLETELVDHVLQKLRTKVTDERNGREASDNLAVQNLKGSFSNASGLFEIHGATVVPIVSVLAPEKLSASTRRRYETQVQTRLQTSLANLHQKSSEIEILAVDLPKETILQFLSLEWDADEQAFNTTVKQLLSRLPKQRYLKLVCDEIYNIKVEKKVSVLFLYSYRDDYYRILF
GCN2 kinase, sequence (Q9P2K8 whole entry): as above

Compound	Ki [1] [nM]	IC50 [2] [nM]	IC50 [1] [nM]
Cn1cc(C(=O)N2CCN(c3ccnc(-c4cnc5ccc(C(F)(F)F)cn45)n3)CC2c2cn[nH]c2)cn1 (stereo not drawn) [I-418, (2-(1H-pyrazol-4-yl)-4-(2-(6-(trifluoromethyl)imidazo[1,2-a]pyridin-3-yl)pyrimidin-4-yl)piperazin-1-yl)(1-methyl-1H-pyrazol-4-yl)methanone]	–	500 to 5000	10 to 100
CC1CC(N=S(C)(C)=O)CN(c2ccnc(-c3cnc4ccc(C(F)(F)F)cn34)n2)C1 (stereo not drawn) [I-31, Dimethyl((5-methyl-1-(2-(6-(trifluoromethyl)imidazo[1,2-a]pyridin-3-yl)pyrimidin-4-yl)piperidin-3-yl)imino)-λ^6-sulfanone]	10 to 100	500 to 5000	–
C[C@@H]1C[C@H](N=S(C)(C)=O)CN(c2ccnc(-c3cnc4cc(Cl)c(Cl)cn34)n2)C1 [I-269, (((3 S,5R)-1-(2-(6,7-dichloroimidazo[1,2-a]pyridin-3-yl)pyrimidin-4-yl)-5-methylpiperidin-3-yl)imino)dimethyl-λ6-sulfanone]	–	500 to 5000	10 to 100
Clc1ccc2ncc(-c3nccc(N4CCCC(c5cnoc5)C4)n3)n2c1 (stereo not drawn) [I-65, 6-Chloro-3-[4-(3-isoxazol-4-yl-piperidin-1-yl)-pyrimidin-2-yl]-imidazo[1,2-a]pyridine]	10 to 100	500 to 5000	–
Cc1noc([C@@H]2CN(c3ccnc(-c4cnc5ccc(Cl)cn45)n3)C[C@H](C)O2)n1 [I-62]	10 to 100	500 to 5000	–
C[C@@H]1[C@H](CNS(C)(=O)=O)N(C2CC2)[C@H](C)CN1c1ccnc(-c2cnc3ccc(C(F)(F)F)cn23)n1 (stereo in doubt) [I-494, N-(((2S,3R,6R)-1-cyclopropyl-3,6-dimethyl-4-(2-(6-(trifluoromethyl)imidazo[1,2-a]pyridin-3-yl)pyrimidin-4-yl)piperazin-2-yl)methyl)methanesulfonamide]	–	500 to 5000	100 to 1000
C[C@H](NS(C)(=O)=O)[C@H]1CN(c2ccnc(-c3cnc4ccc(C(F)(F)F)cn34)n2)CCO1 (stereo in doubt) [I-405, N—((S)-1-((R)-4-(2-(6-(trifluoromethyl)imidazo[1,2-a]pyridin-3-yl)pyrimidin-4-yl)morpholin-2-yl)ethyl)methanesulfonamide]	–	500 to 5000	10 to 100
CC1CN(c2nccc(-c3cnc4ccc(Cl)cn34)n2)C(C)C(c2cn[nH]c2)N1 (stereo not drawn) [I-35, 6-Chloro-3-[4-[2,5-dimethyl-3-(1H-pyrazol-4-yl)piperazin-1-yl]pyrimidin-2-yl]imidazo[12-a]pyridine]	10 to 100	500 to 5000	–
O=C(c1c[nH]cn1)N1CCN(c2ccnc(-c3cnc4ccc(C(F)(F)F)cn34)n2)CC1c1cn[nH]c1 (stereo not drawn) [I-445, (2-(1H-pyrazol-4-yl)-4-(2-(6-(trifluoromethyl)imidazo[1,2-a]pyridin-3-yl)pyrimidin-4-yl)piperazin-1-yl)(1H-imidazol-4-yl)methanone]	–	500 to 5000	10 to 100
COCC1(CN2CCN(c3ccnc(-c4cnc5ccc(C(F)(F)F)cn45)n3)[C@@H](C)[C@@H]2c2cn[nH]c2)CCC1 [I-512, 4-[(2S,3 S)-4-{[1-(methoxymethyl)cyclobutyl]methyl}-2-methyl-3-(1H-pyrazol-4-yl)piperazin-1-yl]-2-[6-(trifluoromethyl)imidazo[1,2-a]pyridin-3-yl]pyrimidine]	–	500 to 5000	100 to 1000
CC(C)(C)OC(=O)N1CC2(CCCN(c3ccnc(-c4cnc5ccc(C(F)(F)F)cn45)n3)C2)C1 [I-387, tert-butyl 6-(2-(6-(trifluoromethyl)imidazo[1,2-a]pyridin-3-yl)pyrimidin-4-yl)-2,6-diazaspiro[3.5]nonane-2-carboxylate]	–	500 to 5000	100 to 1000
CC(C)(C)OC(=O)N1CC2(C1)CN(c1ccnc(-c3cnc4ccc(C(F)(F)F)cn34)n1)CCO2 [I-386, tert-butyl 8-(2-(6-(trifluoromethyl)imidazo[1,2-a]pyridin-3-yl)pyrimidin-4-yl)-5-oxa-2,8-diazaspiro[3.5]nonane-2-carboxylate]	–	500 to 5000	100 to 1000
CC1(C)CN(c2ccnc(-c3cnc4ccc(C(F)F)cn34)n2)CC2(CN(S(C)(=O)=O)C2)O1 [I-396, 8-(2-(6-(difluoromethyl)imidazo[1,2-a]pyridin-3-yl)pyrimidin-4-yl)-6,6-dimethyl-2-(methylsulfonyl)-5-oxa-2,8-diazaspiro[3.5]nonane]	–	> 5000	10 to 100
FC(F)(F)c1ccc2ncc(-c3nccc(N4CCCC(n5cncn5)C4)n3)n2c1 (stereo not drawn) [I-356, 3-(4-(3-(1H-1,2,4-triazol-1-yl)piperidin-1-yl)pyrimidin-2-yl)-6-(trifluoromethyl)imidazo[1,2-a]pyridine]	–	500 to 5000	10 to 100
CC1(C)CN(c2ccnc(-c3cnc4ccc(C(F)(F)F)cn34)n2)CC2(CNC2)O1 [I-294, 6,6-dimethyl-8-(2-(6-(trifluoromethyl)imidazo[1,2-a]pyridin-3-yl)pyrimidin-4-yl)-5-oxa-2,8-diazaspiro[3.5]nonane]	–	> 5000	100 to 1000

The next lines start with the values.

Ki [1] [nM]	IC50 [2] [nM]	IC50 [1] [nM]	Compound
10 to 100	500 to 5000	–	CS(=O)(=O)NC[C@@H]1CN(c2ccnc(-c3cnc4ccc(C(F)(F)F)cn34)n2)CCO1 [I-1, N-[[(2S)-4-[2-[6-(Trifluoromethyl)imidazo[1,2-a]pyridin-3-yl]pyrimidin-4-yl]morpholin-2-yl]methyl]methanesulfonamide]
–	< 500	10 to 100	CC1(C)CC1CN1CCN(c2ccnc(-c3cnc4ccc(C(F)(F)F)cn34)n2)CC1c1cn[nH]c1 (stereo not drawn) [I-477, 3-(4-(4-((2,2-dimethylcyclopropyl)methyl)-3-(1H-pyrazol-4-yl)piperazin-1-yl)pyrimidin-2-yl)-6-(trifluoromethyl)imidazo[1,2-a]pyridine]
< 10	< 500	–	Fc1cc2ncc(-c3nccc(N4CCOC(c5cn[nH]c5)C4)n3)n2cc1Cl (stereo not drawn) [I-23, 4-[2-(6-Chloro-7-fluoro-imidazo[1,2-a]pyridin-3-yl)pyrimidin-4-yl]-2-(1H-pyrazol-4-yl)morpholine]
–	< 500	10 to 100	FC(F)(F)c1ccc2ncc(-c3nccc(N4CCN(C5CC6(COC6)C5)[C@@H](c5cn[nH]c5)C4)n3)n2c1 [I-502, (S)-3-(4-(3-(1H-pyrazol-4-yl)-4-(2-oxaspiro[3.3]heptan-6-yl)piperazin-1-yl)pyrimidin-2-yl)-6-(trifluoromethyl)imidazo[1,2-a]pyridine]
100 to 1000	< 500	–	Fc1cc2ncc(-c3nccc(N4CCOC(c5ccccn5)C4)n3)n2cc1Cl (stereo not drawn) [I-88, 6-Chloro-7-fluoro-3-[4-(2-pyridin-2-yl-morpholin-4-yl)-pyrimidin-2-yl]-imidazo[1,2-a]pyridine]
–	< 500	100 to 1000	FC1(F)CCCN(c2ccnc(-c3cnc4ccc(C(F)(F)F)cn34)n2)C1 [I-224, 3-(4-(3,3-difluoropiperidin-1-yl)pyrimidin-2-yl)-6-(trifluoromethyl)imidazo[1,2-a]pyridine]
< 10	< 500	–	FC(F)(F)c1ccc2ncc(-c3nc(N4CCOC(c5cn[nH]c5)C4)ns3)n2c1 (stereo not drawn) [I-108, 2-(1H-pyrazol-4-yl)-4-(5-(6-(trifluoromethyl)imidazo[1,2-a]pyridin-3-yl)-1,2,4-thiadiazol-3-yl)morpholine]
–	< 500	< 10	FC(F)(F)c1ccc2ncc(-c3ccnc(N4CCN(C[C@@H]5CCCOC5)[C@H](c5cn[nH]c5)C4)n3)n2c1 [I-544, 3-(2-((R)-3-(1H-pyrazol-4-yl)-4-(((S)-tetrahydro-2H-pyran-3-yl)methyl)piperazin-1-yl)pyrimidin-4-yl)-6-(trifluoromethyl)imidazo[1,2-a]pyridine]
< 10	< 500	< 10	CC1CC(C(N)=O)CN(c2ccnc(-c3cnc4ccc(C(F)(F)F)cn34)n2)C1 (stereo not drawn) [I-149, 5-Methyl-1-[2-(6-trifluoromethyl-imidazo[1,2-a]pyridin-3-yl)-pyrimidin-4-yl]-piperidine-3-carboxylic acid amide]
–	< 500	10 to 100	Cc1n[nH]cc1C1CC(F)CN(c2ccnc(-c3cnc4ccc(C(F)(F)F)cn34)n2)C1 (stereo not drawn) [I-357, 3-(4-(3-fluoro-5-(3-methyl-1H-pyrazol-4-yl)piperidin-1-yl)pyrimidin-2-yl)-6-(trifluoromethyl)imidazo[1,2-a]pyridine]
–	< 500	< 10	Cc1cnc(N2C[C@@H](C)C[C@@H](c3cn[nH]c3)C2)nc1-c1cnc2ccc(Cl)cn12 [I-186, 6-chloro-3-(5-methyl-2-((3S,5S)-3-methyl-5-(1H-pyrazol-4-yl)piperidin-1-yl)pyrimidin-4-yl)imidazo[1,2-a]pyridine]
< 10	< 500	–	Cc1noc([C@H]2CN(c3ccnc(-c4cnc5ccc(C(F)(F)F)cn45)n3)C[C@@H](C)O2)n1 (stereo in doubt) [I-90, 2-methyl-6-(3-methyl-1,2,4-oxadiazol-5-yl)-4-{2-[6-(trifluoromethyl)imidazo[1,2-a]pyridin-3-yl]pyrimidin-4-yl}morpholine]
–	< 500	10 to 100	Cc1oncc1[C@@H]1CN(c2ccnc(-c3cnc4ccc(C(F)(F)F)cn34)n2)C[C@H](C)O1 [I-346, (2S,6R)-2-methyl-6-(5-methylisoxazol-4-yl)-4-(2-(6-(trifluoromethyl)imidazo[1,2-a]pyridin-3-yl)pyrimidin-4-yl)morpholine]
